Source: patent US11377441B2, “Covalent inhibitors of KRAS” (Araxes Pharma LLC, priority 2017, dated 2022)

Molecular target: T1, KRAS G12C 1-169, his-tagged protein, GDP-loaded (Homo sapiens, UniProt P01116, G12C)
T1 construct: KRAS G12C 1-169, his-tagged protein, GDP-loaded
Assay: Biochemical assay: covalent modification of KRAS G12C measured by mass spectrometry (RapidFire/TOF or Q-Exactive)
Type: binding
Settings: covalent binding to (modification of) KRAS G12C after a ten minute incubation period
Summary of the method: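 GDP-loaded KRAS G12C 1-169 (his-tagged) at 2 μM or 0.5 μM in 20 mM Hepes, 150 mM NaCl, 1 mM MgCl2, incubated with compound at 100, 30 or 10 μM at room temperature for 10 min, 30 min, 2 h or 24 h, then quenched with formic acid. Intact-protein LC-MS, deconvolved; percent modification from modified versus unmodified protein.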

With C=CC(=O)N1C[C@H](C)N(c2nc(N3CC(NC)C3)nc3c(F)c(-c4c(C)ccc5cnn(C6CC6)c45)c(Cl)cc23)C[C@H]1C (atropisomer, axis not shown) [Compound 207, 1-((2R,5S)-4-((S)-6-chloro-7-(1-cyclopropyl-6-methyl-1H-indazol-7-yl)-8-fluoro-2-(3-(methylamino)azetidin-1-yl)quinazolin-4-yl)-2,5-dimethylpiperazin-1-yl)prop-2-en-1-one] as the compound, how does the Binding % read?
The Binding % was “+ (+ indicates binding activity greater than 0% and up to 50%)”.

For C=CC(=O)N1C[C@H](C)N(c2nc(N3CC(NC)C3)nc3c(F)c(-c4c(C)ccc5cnn(C6CC6)c45)c(Cl)cc23)C[C@H]1C (atropisomer, axis not shown) [Compound 208, 1-((2R,5S)-4-((R)-6-chloro-7-(1-cyclopropyl-6-methyl-1H-indazol-7-yl)-8-fluoro-2-(3-(methylamino)azetidin-1-yl)quinazolin-4-yl)-2,5-dimethylpiperazin-1-yl)prop-2-en-1-one], which Binding % is on record?
The Binding % was “+++ (+++ indicates binding activity greater than 80%)”.

How did the Binding % turn out when C=CC(=O)N1C[C@H](C)N(c2nc(N3CC(NC)C3)nc3c(F)c(-c4c(C)ccc5[nH]nc(C6CC6)c45)c(Cl)cc23)C[C@H]1C (atropisomer, axis not shown) [Compound 210, 1-((2R,5S)-4-((S)-6-chloro-7-(3-cyclopropyl-5-methyl-1H-indazol-4-yl)-8-fluoro-2-(3-(methylamino)azetidin-1-yl)quinazolin-4-yl)-2,5-dimethylpiperazin-1-yl)prop-2-en-1-one] was run?
Its Binding % is “+ (+ indicates binding activity greater than 0% and up to 50%)”.

For [2H]C([2H])([2H])N(C1CN(c2nc(N3C[C@@H](C)N(C(=O)C=C)C[C@@H]3C)c3cc(Cl)c(-c4c(C)ccc5cnn(C)c45)c(F)c3n2)C1)C([2H])([2H])[2H] (atropisomer, axis not shown) [Compound 211, 1-((2R,5S)-4-((S)-6-chloro-7-(1,6-dimethyl-1H-indazol-7-yl)-2-(3-(di-perdeuteromethylamino)azetidin-1-yl)-8-fluoroquinazolin-4-yl)-2,5-dimethylpiperazin-1-yl)prop-2-en-1-one], which Binding % is on record?
The Binding % was “+ (+ indicates binding activity greater than 0% and up to 50%)”.

With [2H]C([2H])([2H])N(C1CN(c2nc(N3C[C@@H](C)N(C(=O)C=C)C[C@@H]3C)c3cc(Cl)c(-c4c(C)ccc5cnn(C)c45)c(F)c3n2)C1)C([2H])([2H])[2H] (atropisomer, axis not shown) [Compound 212, 1-((2R,5S)-4-((R)-6-chloro-7-(1,6-dimethyl-1H-indazol-7-yl)-2-(3-(di-perdeuteromethylamino)azetidin-1-yl)-8-fluoroquinazolin-4-yl)-2,5-dimethylpiperazin-1-yl)prop-2-en-1-one] as the compound, how does the Binding % read?
The Binding % was “+++ (+++ indicates binding activity greater than 80%)”.

How did the Binding % turn out when C=CC(=O)N1C[C@H](C)N(c2nc(N3CC(N(C)C)C3)nc3c(F)c(-c4ccc(F)c5cnn(C6CC6)c45)c(Cl)cc23)C[C@H]1C (atropisomer, axis not shown) [Compound 217, 1-((2R,5S)-4-((S)-6-chloro-7-(1-cyclopropyl-4-fluoro-1H-indazol-7-yl)-2-(3-(dimethylamino)azetidin-1-yl)-8-fluoroquinazolin-4-yl)-2,5-dimethylpiperazin-1-yl)prop-2-en-1-one] was run?
The Binding % was “+ (+ indicates binding activity greater than 0% and up to 50%)”.

For C=CC(=O)N1C[C@H](C)N(c2nc(N3CC(N(C)C)C3)nc3c(F)c(-c4ccc(F)c5cnn(C6CC6)c45)c(Cl)cc23)C[C@H]1C (atropisomer, axis not shown) [Compound 218, 1-((2R,5S)-4-((R)-6-chloro-7-(1-cyclopropyl-4-fluoro-1H-indazol-7-yl)-2-(3-(dimethylamino)azetidin-1-yl)-8-fluoroquinazolin-4-yl)-2,5-dimethylpiperazin-1-yl)prop-2-en-1-one], which Binding % is on record?
Its Binding % is “+++ (+++ indicates binding activity greater than 80%)”.

How did the Binding % turn out when C=CC(=O)N1C[C@H](C)N(c2nc(N3CC(NC)C3)nc3c(F)c(-c4c(C)ccc5[nH]nc(C)c45)c(Cl)cc23)C[C@H]1C (atropisomer, axis not shown) [Compound 219, 1-((2R,5S)-4-((S)-6-chloro-7-(3,5-dimethyl-1H-indazol-4-yl)-8-fluoro-2-(3-(methylamino)azetidin-1-yl)quinazolin-4-yl)-2,5-dimethylpiperazin-1-yl)prop-2-en-1-one] was run?
Its Binding % is “+ (+ indicates binding activity greater than 0% and up to 50%)”.

Which Binding % does the source give for C=CC(=O)N1C[C@H](C)N(c2nc(N3CC(NC)C3)nc3c(F)c(-c4c(C)ccc5[nH]nc(C)c45)c(Cl)cc23)C[C@H]1C (atropisomer, axis not shown) [Compound 220, 1-((2R,5S)-4-((R)-6-chloro-7-(3,5-dimethyl-1H-indazol-4-yl)-8-fluoro-2-(3-(methylamino)azetidin-1-yl)quinazolin-4-yl)-2,5-dimethylpiperazin-1-yl)prop-2-en-1-one] here?
The Binding % was “+++ (+++ indicates binding activity greater than 80%)”.

How did the Binding % turn out when [2H]C([2H])([2H])N(C1CN(c2nc(N3C[C@@H](C)N(C(=O)C=C)C[C@@H]3C)c3cc(Cl)c(-c4c(C)ccc5[nH]nc(C)c45)c(F)c3n2)C1)C([2H])([2H])[2H] (atropisomer, axis not shown) [Compound 221, 1-((2R,5S)-4-((R)-6-chloro-7-(3,5-dimethyl-1H-indazol-4-yl)-2-(3-(di-perdeuteromethylamino)azetidin-1-yl)-8-fluoroquinazolin-4-yl)-2,5-dimethylpiperazin-1-yl)prop-2-en-1-one] was run?
Its Binding % is “+++ (+++ indicates binding activity greater than 80%)”.

With [2H]C([2H])([2H])N(C1CN(c2nc(N3C[C@@H](C)N(C(=O)C=C)C[C@@H]3C)c3cc(Cl)c(-c4c(C)ccc5[nH]nc(C)c45)c(F)c3n2)C1)C([2H])([2H])[2H] (atropisomer, axis not shown) [Compound 222, 1-((2R,5S)-4-((S)-6-chloro-7-(3,5-dimethyl-1H-indazol-4-yl)-2-(3-(di-perdeuteromethylamino)azetidin-1-yl)-8-fluoroquinazolin-4-yl)-2,5-dimethylpiperazin-1-yl)prop-2-en-1-one] as the compound, how does the Binding % read?
Its Binding % is “+ (+ indicates binding activity greater than 0% and up to 50%)”.

Which Binding % does the source give for [2H]C([2H])([2H])N(C1CN(c2nc(N3C[C@@H](C)N(C(=O)C=C)C[C@@H]3C)c3cc(Cl)c(-c4c(C)ccc5[nH]nc(C6CC6)c45)c(F)c3n2)C1)C([2H])([2H])[2H] (atropisomer, axis not shown) [Compound 223, 1-((2R,5S)-4-((S)-6-chloro-7-(3-cyclopropyl-5-methyl-1H-indazol-4-yl)-2-(3-(di-perdeuteromethylamino)azetidin-1-yl)-8-fluoroquinazolin-4-yl)-2,5-dimethylpiperazin-1-yl)prop-2-en-1-one] here?
The Binding % was “+ (+ indicates binding activity greater than 0% and up to 50%)”.

How did the Binding % turn out when [2H]C([2H])([2H])N(C1CN(c2nc(N3C[C@@H](C)N(C(=O)C=C)C[C@@H]3C)c3cc(Cl)c(-c4c(C)ccc5[nH]nc(C6CC6)c45)c(F)c3n2)C1)C([2H])([2H])[2H] (atropisomer, axis not shown) [Compound 224, 1-((2R,5S)-4-((R)-6-chloro-7-(3-cyclopropyl-5-methyl-1H-indazol-4-yl)-2-(3-(di-perdeuteromethylamino)azetidin-1-yl)-8-fluoroquinazolin-4-yl)-2,5-dimethylpiperazin-1-yl)prop-2-en-1-one] was run?
The Binding % was “+ (+ indicates binding activity greater than 0% and up to 50%)”.
